{"source": "patent US20100183687A1", "about": "“PROCESS FOR PREPARING PARTICLES OF OPIOIDS AND COMPOSITIONS PRODUCED THEREBY” (priority 2009, published 2010)", "origin": "cited, not measured here", "conditions": "water"}
{"molecule": "COc1ccc2c3c1O[C@H]1C(=O)CC[C@@]4(O)[C@@H](C2)N(C)CC[C@]314.Cl", "note": "[oxycodone hydrochloride]", "values": [{"measurement": "solubility at neutral pH", "result": 100, "unit": "mg/ml"}]}
